Data from US20260132129A1 (Genesis Therapeutics, Inc., priority 2022, published 2026).

Target: T1, PI3Kα H1047R (T47D cells) (Homo sapiens, UniProt P42336, H1047R)
T1 construct: endogenous in cells; host or cells: T47D cells
Assay: PI3Kα cellular assay: pAKT HTRF in T47D cells after EGF stimulation
Type: cell-based
Settings: for IC50: T47D cells (PI3Kα H1047R), pAKT S473 HTRF
Procedure, shortened: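 T47D cells (PIK3CA H1047R) serum-starved 16 h, then treated 1 h at 37 °C with compound (10,000 nM top, 3-fold steps to 0.5 nM). After 10 min stimulation with 20 ng/mL EGF, cells were lysed and pAKT measured by HTRF.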

[1] = selectivity T47D (H1047R) over SKBR3 (WT), pAKT HTRF
[2] = selectivity of T47D (H1047R) over SKBR3 (WT) pAKT IC50
[3] = 1 hr compound, 20 ng/ml EGF 10 min

T1 sequence (P42336 whole entry H1047R): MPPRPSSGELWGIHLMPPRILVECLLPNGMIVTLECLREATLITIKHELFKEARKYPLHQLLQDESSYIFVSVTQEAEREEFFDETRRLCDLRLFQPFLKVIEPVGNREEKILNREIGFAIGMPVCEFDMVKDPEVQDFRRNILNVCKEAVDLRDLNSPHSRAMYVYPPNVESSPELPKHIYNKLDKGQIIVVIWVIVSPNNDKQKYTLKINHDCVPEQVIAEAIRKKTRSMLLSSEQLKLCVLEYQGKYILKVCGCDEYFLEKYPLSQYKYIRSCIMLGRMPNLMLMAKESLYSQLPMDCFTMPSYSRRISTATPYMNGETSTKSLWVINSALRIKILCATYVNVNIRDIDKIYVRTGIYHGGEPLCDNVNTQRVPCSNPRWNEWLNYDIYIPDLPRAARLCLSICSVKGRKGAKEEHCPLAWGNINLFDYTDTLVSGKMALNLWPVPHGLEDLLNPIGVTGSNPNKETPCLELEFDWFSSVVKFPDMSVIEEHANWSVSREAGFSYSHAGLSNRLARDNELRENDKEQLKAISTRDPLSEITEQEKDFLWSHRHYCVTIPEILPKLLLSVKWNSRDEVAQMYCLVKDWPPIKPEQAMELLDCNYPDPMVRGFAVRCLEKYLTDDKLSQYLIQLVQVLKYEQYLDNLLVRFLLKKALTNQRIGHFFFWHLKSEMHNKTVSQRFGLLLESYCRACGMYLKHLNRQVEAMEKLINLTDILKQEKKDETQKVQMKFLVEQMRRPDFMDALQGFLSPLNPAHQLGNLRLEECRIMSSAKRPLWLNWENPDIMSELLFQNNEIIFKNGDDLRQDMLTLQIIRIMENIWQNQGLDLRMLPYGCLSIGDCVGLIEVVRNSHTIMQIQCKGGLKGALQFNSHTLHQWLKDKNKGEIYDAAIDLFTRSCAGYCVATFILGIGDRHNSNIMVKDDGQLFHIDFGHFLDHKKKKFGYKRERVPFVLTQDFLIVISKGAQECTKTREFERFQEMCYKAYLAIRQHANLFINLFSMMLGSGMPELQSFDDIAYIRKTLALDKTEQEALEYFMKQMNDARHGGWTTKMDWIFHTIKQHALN
T1 sequence (P27986 whole entry partner): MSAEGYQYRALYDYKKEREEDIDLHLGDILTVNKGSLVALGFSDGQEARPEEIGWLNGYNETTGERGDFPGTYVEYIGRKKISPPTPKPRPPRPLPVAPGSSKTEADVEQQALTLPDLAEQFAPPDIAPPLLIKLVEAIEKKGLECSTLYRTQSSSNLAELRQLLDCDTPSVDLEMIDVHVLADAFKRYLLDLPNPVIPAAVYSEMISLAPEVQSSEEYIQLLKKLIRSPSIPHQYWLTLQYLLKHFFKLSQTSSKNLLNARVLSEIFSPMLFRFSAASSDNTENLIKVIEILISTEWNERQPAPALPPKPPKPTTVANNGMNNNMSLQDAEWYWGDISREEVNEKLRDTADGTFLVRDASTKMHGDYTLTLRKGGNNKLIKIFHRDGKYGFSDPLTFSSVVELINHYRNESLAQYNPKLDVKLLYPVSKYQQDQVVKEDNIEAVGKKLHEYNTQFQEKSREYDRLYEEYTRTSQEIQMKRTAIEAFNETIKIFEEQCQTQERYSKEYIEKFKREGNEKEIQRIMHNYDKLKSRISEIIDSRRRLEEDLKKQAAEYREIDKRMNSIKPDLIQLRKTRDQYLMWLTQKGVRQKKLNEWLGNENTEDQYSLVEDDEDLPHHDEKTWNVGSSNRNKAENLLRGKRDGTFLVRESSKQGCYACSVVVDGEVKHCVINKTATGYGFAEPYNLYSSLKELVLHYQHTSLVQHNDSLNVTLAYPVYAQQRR

Row | SMILES | IC50 (EGF stimulation) [nM] | T47D pAKT S473 HTRF IC50 (H1047R): T47D (H1047R) selectivity over SKBR3 (WT) [1] | T47D pAKT S473 HTRF IC50 (H1047R): T47D (H1047R) selectivity over SKBR3 (WT) [2] | IC50 [3] [nM]
1 | Cc1cc(C(C)Nc2ccccc2C(=O)O)c2nc(-c3cnc4c(c3)c(C)c(C)n4C)c(C)c(=O)n2c1 (stereo not shown) [Compound 1410, 2-((1-(3,7-dimethyl-4-oxo-2-(1,2,3-trimethyl-1H-pyrrolo[2,3-b]pyridin-5-yl)-4H-pyrido[1,2-a]pyrimidin-9-yl)ethyl)amino)benzoic acid] | < 100 | A (A denotes >20-fold) | – | –
2 | Cc1cc([C@H](C)Nc2ccccc2C(=O)O)c2nc(-c3ccc4c(c3)c(C3CC3)nn4C)cc(=O)n2c1 [Compound 749] | > 2000 | – | C (C denotes ≤5-fold) | –
3 | Cc1cc(C(C)Nc2ccccc2C(=O)O)c2nc(C3CCC(NS(C)(=O)=O)CC3)c(C)c(=O)n2c1 (stereo not shown) [Compound 543] | – | C (C denotes ≤5-fold) | – | > 2000
4 | Cc1cc([C@@H](C)Nc2ccccc2C(=O)O)c2nc(-c3ccnc(C)n3)c(C)c(=O)n2c1 [Compound 1198] | > 2000 | C (C denotes ≤5-fold) | – | –
5 | Cc1cc([C@@H](C)Nc2cccc3onc(O)c23)c2nc(-c3cccc(F)c3)c(C)c(=O)n2c1 (single isomer, unassigned) [Compound 1374] | 100 to 500 | A (A denotes >20-fold) | – | –
6 | Cc1cc(C(C)CNc2ccccc2C(=O)O)c2nc(N3CCOCC3)cc(=O)n2c1 (stereo not shown) [Compound 735] | – | – | C (C denotes ≤5-fold) | –
7 | Cc1cc([C@@H](C)Nc2ccccc2C(=O)O)c2cc([C@@H]3CCCOC3)c(C#N)c(=O)n2c1 [Compound 1361] | – | A (A denotes >20-fold) | – | –
8 | Cc1cc([C@H](C)Nc2ccccc2C(=O)O)c2nc(C3CCCOC3)c(C#N)c(=O)n2c1 (stereo partly shown) [Compound 1364] | > 2000 | C (C denotes ≤5-fold) | – | –
9 | CC(=O)Cc1cc2ccc(-c3cc(=O)n4cc(C)cc(C(C)Nc5ccccc5C(=O)O)c4n3)cn2n1 (stereo not shown) [Compound 507] | – | C (C denotes ≤5-fold) | – | > 2000
10 | Cc1cc([C@@H](C)Nc2ccccc2C(=O)O)c2nc(-c3ccc(C4CC4)nc3)cc(=O)n2c1 [Compound 1111] | < 100 | A (A denotes >20-fold) | – | –
11 | Cc1cc([C@@H](C)Nc2ccccc2C(=O)O)c2nc(C3Cc4ccccc4[C@@H]3C)cc(=O)n2c1 (single isomer, unassigned) [Compound 652] | – | – | A (A denotes >20-fold) | –
12 | Cc1cc([C@H](C)Nc2ccccc2C(=O)O)c2nc(C3CCOCC3)cc(=O)n2c1 [Compound 317] | – | A (A denotes >20-fold) | – | 100 to 500
13 | Cc1cc([C@H](C)Nc2ccccc2C(=O)O)c2nc(-c3cc[nH]c(=O)c3)cc(=O)n2c1 [Compound 462] | – | C (C denotes ≤5-fold) | – | > 2000
14 | Cc1cc([C@H](C)Nc2ccccc2C(N)=O)c2nc(-c3cnc(C)c(Cl)c3)c(C)c(=O)n2c1 [Compound 1136] | > 2000 | C (C denotes ≤5-fold) | – | –
15 | Cc1cc([C@H](C)Nc2ccccc2S(C)(=O)=O)c2nc(N3CCOCC3)cc(=O)n2c1 [Compound 160] | – | C (C denotes ≤5-fold) | – | > 2000
16 | Cc1cc(C(C)Nc2ccccc2C(=O)O)c2nc(-c3cc(C)c4oc(=O)[nH]c4c3)cc(=O)n2c1 (stereo not shown) [Compound 1413, 2-((1-(7-methyl-2-(7-methyl-2-oxo-2,3-dihydrobenzo[d]oxazol-5-yl)-4-oxo-4H-pyrido[1,2-a]pyrimidin-9-yl)ethyl)amino)benzoic acid] | 100 to 500 | A (A denotes >20-fold) | – | –
17 | Cc1cc(C(C)Nc2ccccc2C(=O)O)c2nc(C3CCCN(CC(F)F)C3)c(C)c(=O)n2c1 (stereo not shown) [Compound 1293] | 100 to 500 | A (A denotes >20-fold) | – | –
18 | Cc1cc([C@H](C)Nc2ccccc2C(=O)O)c2nc(N3CCCCC3)cc(=O)n2c1 [Compound 8] | – | C (C denotes ≤5-fold) | – | > 2000
19 | Cc1cc([C@H](C)Nc2ccccc2)c2nc(-c3cc(F)c4c(N)n[nH]c4c3)cc(=O)n2c1 [Compound 258] | – | C (C denotes ≤5-fold) | – | > 2000
20 | Cc1cc([C@H](C)Nc2ccnnc2C(=O)O)c2nc(N3CCOCC3)cc(=O)n2c1 [Compound 378] | – | C (C denotes ≤5-fold) | – | > 2000
